Laboratory results taken from paper PMC5108032, “Discovery of a Quinoline-4-carboxamide Derivative with a Novel Mechanism of Action, Multistage Antimalarial Activity, and Potent in Vivo Efficacy” (Journal of Medicinal Chemistry, 2016).
Where “and” joins values, the source holds several entries; their conditions need not be identical. Equal values may be shown once.

Key:
P. berghei ANKA strain = test: In vivo antimalarial efficacy in the P. berghei mouse model (Peter's test); parameters: species or system Plasmodium berghei in female NMRI mice; conditions: 4 × 30 mg/kg oral, once daily; mice cured / mice in group; 30 mg/kg
Procedure: Compound 41 was dosed as a bolus solution intravenously at 1 mg free base/kg (dose volume: 5 mL/kg; dose vehicle: 5% DMSO;saline) or by gavage orally as solution at 3 mg free base/kg (dose volume: 10 mL/kg; Dose vehicle: 0.5% w/v hydroxypropylmethylcellulose with 0.4% v/v Tween 80 and 0.5% v/v benzyl alcohol) to male Sprague Dawley rats (n=3/dose route). Blood samples were taken from each rat at 5, 15, 30 min, 1, 2, 4, 6, 8, 24 and 30 h post-dose, mixed with two volumes of distilled water and stored frozen until UPLC/MS/MS analysis.
Pharmacokinetic parameters were derived from the blood concentration time curve for each compound using PKsolutions software v 2.0 (Summit Research Services, USA).
In vivo antimalarial efficacy studies in P. berghei. (Swiss TPH)
In vivo efficacy was conducted as previously described10 with the modification that female NMRI mice (n = 3) were infected with a GFP-transfected P. berghei ANKA strain (donated by A. P. Waters and C. J. Janse, Leiden University, The Netherlands), and parasitaemia determined (96 h after infection) using standard flow cytometry techniques. Compounds 1, 25, 27, 30 and 49 were prepared in 10% DM SO, 40% PEG 400 and 50% water prior to administration orally, once daily for 4 days.
Compounds 40, 41, 43 and 44 were prepared in a non-solubilizing, standard suspension vehicle called HPMC (0.5% [wt/vol] hydroxypropylmethylcellulose, 0.5% [vol/vol] benzyl alcohol, 0.4% [vol/vol] Tween 80, and 0.9% [wt/vol] sodium chloride in water) prior to administration orally, once daily for 4 days. Blood samples were collected on day 4 (96 h after infection) in two volumes water. Animals […]
and then hourly up to 4 h after dosing each day. The animals were selected randomly for each group

Rat pharmacokinetics = type: in vivo, male Sprague Dawley rats; conditions: male Sprague Dawley rat, intravenous at 1 mg/kg
Procedure: (100 µl) was then removed from both acceptor and donor compartments and mixed with acetonitrile (80 µl) containing an internal standard. The samples were centrifuged (10 min, 5 °C, 3270 g) to sediment precipitated protein and sealed prior to UPLC-MS/MS analysis using a Quattro Premier XE (Waters Corp, USA). Pe was calculated as shown in the below equation:
Pe (nm/sec) = 107 x - In [1 - CA (t) / Cequi]
CA(t) = peak area of compound present in acceptor well at time t = 18000 sec Cequi = [CD(t) * VD + CA(t) * VA] / (VD + VA)
VA = acceptor well volume
CD(t) = peak area of compound present in donor well at time t = 18000 sec Recovery of compound from donor and acceptor wells was calculated and data was only accepted when recovery exceeded 70 %. […]
Compound was dosed as a bolus solution intravenously (12) at 3mg free base/kg (dose volume: 5 mL/kg; dose vehicle: 10% DMSO, 90% saline) to female NMRI mice (n=3) or dosed orally (12 and 13) by gavage as a solution at 10 mg free base/kg (dose volume: 10mL/kg; Dose vehicle: 5 or 10% DMSO; 40% PEG400; 50 or 55% distilled water) to female NMRI mice (n=3/dose level). […] The level of each compound in mouse blood was determined by UPLC-MS/MS as previously reported.9 Pharmacokinetic parameters were derived from the blood concentration time curve using PKsolutions software v 2.0 (Summit Research Services, USA). […]

Clb (Rat pharmacokinetics) [mL min^–1 kg^–1] | Compound | cure (P. berghei ANKA strain)
 | O=C(NCCN1CCCC1)c1cc(NCCCCN2CCOCC2)nc2ccc(Cl)cc12 [Compound 27, 6-Chloro-2-((4-morpholinobutyl)amino)-N-(2-(pyrrolidin-1-yl)ethyl)quinoline-4-carboxamide] | one out of three and 1/3
32 | O=C(NCCN1CCCC1)c1cc(-c2ccc(CN3CCOCC3)cc2F)nc2ccc(F)cc12 [Compound 41] | 
